# Measured values from PMC5681654, “Dual protein kinase and nucleoside kinase modulators for rationally designed polypharmacology” (Nature Communications, 2017).
# “Also recorded” adds a separate entry of the source.
# What was measured:
# [1] = target: dCK-C3S-S74E (Homo sapiens, UniProt P27707, C45S/C59S/C9S/S74E); test: Isothermal titration calorimetry (ITC)
# Description: ITC was used to evaluate the binding between dCK-C3S-S74E and the selected compounds. […] Purified dCK-C3S-S74E and the compounds were diluted in the ITC buffer containing 20 mM HEPES, pH 7.5, and 200 mM NaCl. Titrations were carried out on a MicroCal ITC200 microcalorimeter (GE Healthcare) at 25 °C using 16 or 24 injections of the titrant (1−3 mM compound in the syringe) into the analyte (100 or 300 μM protein in the cell). A first small injection (0.2 μl) was included in the titration protocol in order to remove air bubbles trapped in the syringe prior titration. Because of the low solubility of several ligands, sequential titrations were employed to achieve sufficient molar ratios for reliable model fitting, and these titrations were linked together prior to data analysis using ConCat32 software (Microcal). Raw data were scaled after setting the zero to the titration saturation heat value.
# [2] = target: recombinant human dCK (Homo sapiens, UniProt P27707); test: dCK kinetic assay (PK/LDH coupled, UTP as phosphate donor); settings: for effect on dCK enzymatic phosphorylation of gemcitabine: Supplementary Fig. 8; for effect on nucleoside phosphorylation by dCK: substrates 2′dC and gemcitabine, UTP, inhibitor/protein ratio 22
# Description: Kinetic analyses were performed using a spectrophotometric continuous enzymatic-coupled assay using pyruvate kinase (PK) and lactate dehydrogenase (LDH). […] All measurements were performed on a BMG Labtech Pherastar FS apparatus. All assays were performed in triplicate and each experiment was performed at least twice. The data are presented as mean ± s.d. The results were plotted as kinetics and the velocity was determined for each condition as the slope of the linear range of the curve. […] K m (Michaelis−Menten constant) and V max (maximal velocity) values were determined using PRISM software (GraphPad Software Inc.) by fitting the experimental data according to the Michaelis−Menten approximation defined as Equation 1.1 V=Vmax⋅S∕Km+S
# [3] = test system: HRT18 (colon) cancer cell line; test: Cell proliferation assay (CellTiter-Blue), HRT18; assay type: cell-based, human
# Description: (§1) At the end of incubation, 10 µl of CellTiter-Blue Reagent were added to each well. The absorbance was read at 590 nm. The effect of the drugs on cells was expressed as a percentage of proliferation compared to untreated cells. […] Drug synergy effects were analysed using Combenefit (Cancer Research Cambridge Institute), a software tool that enables the visualisation, analysis and quantification of drug combination effects[49]. The data from combination treatments were processed using three synergy reference models: highest single agent (HSA) model, Loewe additivity model and Bliss independence model for HRT18 and LnCAP cell lines.
# [4] = test system: A549 (lung) cancer cell line; test: Cell proliferation assay (CellTiter-Blue), A549; assay type: cell-based, human; settings: gemcitabine 0−100 µM or masitinib 0−10 µM alone, 5 days
# Description: as §1
# [5] = test system: LNCaP (prostate) cancer cell line; test: Cell proliferation assay (CellTiter-Blue), LNCaP; assay type: cell-based, human
# Description: as §1
# [6] = test system: CHO cells (constitutive dCK); test: Cell proliferation assay (CellTiter-Blue), CHO; assay type: cell-based, Chinese hamster; settings: gemcitabine 0−1 µM, 5 days
# Description: as §1
# [7] = test system: CHO dCK- cells (deficient dCK); test: Cell proliferation assay (CellTiter-Blue), CHO dCK-; assay type: cell-based, Chinese hamster; settings: gemcitabine 0−1 µM, 5 days
# Description: as §1
# [8] = test system: CHO dCK Rescue cells (partially reconstituted dCK); test: Cell proliferation assay (CellTiter-Blue), CHO dCK Rescue; assay type: cell-based, Chinese hamster; settings: CHO dCK Rescue (low dCK expression); gemcitabine 0−1 µM; 5 days
# Description: At the end of incubation, 10 µl of CellTiter-Blue Reagent were added to each well. The absorbance was read at 590 nm. The effect of the drugs on cells was expressed as a percentage of proliferation compared to untreated cells.
# CHO dCK deficient cells (CHO dCK-) were plated in 96-well plates at a density of 5000 cells per well and incubated overnight. The cells were transfected with the pMSCV insert free (vector control) and pMSCV-dCK respectively, using FuGENE 6 Transfection Reagent (Promega) according to manufacturer recommendations. Two days after transfection, cells were plated in 6-well plates and selected in 1 mg ml^-1 Geniticin-G418 (Gibco) for 2 weeks. The positive clones were picked and expanded to establish cell lines. The stable transfection cell clones, named as CHO dCK Rescue, were controlled by western blot analysis for dCK expression levels.
# [9] = target: biotinylated dCK-C3S-S74E (Homo sapiens, UniProt P27707, C45S/C59S/C9S/S74E); test: Bio-layer interferometry kinetics, immobilised biotinylated dCK
# Description: BLI measurements were carried out using an Octet RED96 instrument (ForteBio). Biotinylated dCK was immobilised on SSA biosensors at a concentration of 5 μM after 1200 s. Free streptavidin sites were blocked by incubating with 10 μg ml^−1 biocytin (Sigma-Aldrich) for 100 s and 1% BSA for 1000 s. A control set of SSA biosensors were prepared in parallel by blocking the surface with biocytin instead of protein. A three-point concentration series were prepared for each compound and were measured using 60 s association and 140 s dissociation steps at 30 °C with a shake speed of 1000 r.p.m. All measurements were performed in binding buffer containing 20 mM HEPES, pH 7.5, 200 mM NaCl, 0.1% BSA and 1% DMSO. Each experiment was performed at least twice and K D, k on and k off values were determined using the global fitting procedure in the ForteBio Data Analysis Software.
# [10] = target: T1, uridine-cytidine kinase 1 (UCK1) (Homo sapiens, UniProt Q9HA47); test: UCK1 kinetic assay (PK/LDH coupled, ATP as phosphate donor); assay type: biochemical; settings: masitinib/protein ratios 0, 1, 10, 100
# T1 construct: made in house; host or cells: E. coli BL21 DE3
# T1 sequence (Q9HA47 1-277): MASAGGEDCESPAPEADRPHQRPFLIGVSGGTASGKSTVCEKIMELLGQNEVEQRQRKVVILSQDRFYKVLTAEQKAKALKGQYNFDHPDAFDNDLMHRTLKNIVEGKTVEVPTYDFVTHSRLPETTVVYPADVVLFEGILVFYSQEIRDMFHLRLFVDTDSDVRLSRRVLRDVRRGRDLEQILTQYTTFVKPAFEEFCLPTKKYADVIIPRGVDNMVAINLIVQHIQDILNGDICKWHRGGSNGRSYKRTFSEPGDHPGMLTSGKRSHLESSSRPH
# Description: Kinetic analyses were performed using a spectrophotometric continuous enzymatic-coupled assay using pyruvate kinase (PK) and lactate dehydrogenase (LDH). […] . […] All assays were performed in triplicate and each experiment was performed at least twice. The data are presented as mean ± s.d. The results were plotted as kinetics and the velocity was determined for each condition as the slope of the linear range of the curve. […] . K m (Michaelis−Menten constant) and V max (maximal velocity) values were determined using PRISM software (GraphPad Software Inc.) by fitting the experimental data according to the Michaelis−Menten approximation defined as Equation 1.1 V=Vmax⋅S∕Km+S
# [11] = target: T2, thymidine kinase (TK1) (Homo sapiens, UniProt P04183); test: TK1 kinetic assay (HTRF Transcreener ADP assay); settings: masitinib/protein ratios 1, 5, 10, 20, 40
# T2 sequence (P04183 2-234 limits assumed): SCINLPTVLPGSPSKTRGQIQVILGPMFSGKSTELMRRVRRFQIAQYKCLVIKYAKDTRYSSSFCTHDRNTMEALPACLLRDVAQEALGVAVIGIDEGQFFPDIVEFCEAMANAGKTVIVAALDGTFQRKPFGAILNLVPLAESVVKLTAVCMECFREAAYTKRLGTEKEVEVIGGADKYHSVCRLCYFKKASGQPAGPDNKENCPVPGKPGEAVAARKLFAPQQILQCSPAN
# Description: ADP and ADP-d2 compete for the binding to a monoclonal anti-ADP antibody labelled with Europium (Eu^3+) cryptate. […] The obtained signal is inversely proportional to the concentration of ADP in the sample. All measurements were performed on a BMG Labtech Pherastar FS apparatus.
# Chain of recombinant human dCK (P27707 whole entry): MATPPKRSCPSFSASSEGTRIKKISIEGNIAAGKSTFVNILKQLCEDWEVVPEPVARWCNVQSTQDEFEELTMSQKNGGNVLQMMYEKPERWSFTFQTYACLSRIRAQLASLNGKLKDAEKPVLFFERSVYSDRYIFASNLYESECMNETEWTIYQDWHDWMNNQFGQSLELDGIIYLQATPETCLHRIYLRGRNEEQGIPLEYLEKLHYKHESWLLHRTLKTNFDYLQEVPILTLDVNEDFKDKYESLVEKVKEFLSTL
# Chain of dCK-C3S-S74E (P27707 whole entry C9S/C45S/C59S/S74E): as the sequence (P27707 whole entry) above, with C9S, C45S, C59S, S74E counted along it
# Chain of biotinylated dCK-C3S-S74E (P27707 whole entry C9S/C45S/C59S/S74E): as the sequence (P27707 whole entry) above, with C9S, C45S, C59S, S74E counted along it
smiles,measurement,setting,value
"Nc1ncn([C@H]2C[C@H](O)[C@@H](CO)O2)c(=O)n1 [Decitabine, decitabine]",Kd,[1],31 ± 5.4 µM
CNC(=O)c1ccccc1Sc1ccc2c(/C=C/c3ccccn3)n[nH]c2c1 [axitinib],effect on dCK enzymatic phosphorylation of gemcitabine,[2],none of the compounds showed an activation effect
Cc1ccc(NC(=O)c2ccc(CN3CC[C@H](N(C)C)C3)c(C(F)(F)F)c2)cc1Nc1nccc(-c2cncnc2)n1 [bafetinib],effect on nucleoside phosphorylation by dCK,[2],most active
COc1cc(Nc2c(C#N)cnc3cc(OCCCN4CCN(C)CC4)c(OC)cc23)c(Cl)cc1Cl [bosutinib],effect on nucleoside phosphorylation by dCK,[2],most active
C#Cc1cccc(Nc2ncnc3cc(OCCOC)c(OCCOC)cc23)c1 [erlotinib],effect on dCK enzymatic phosphorylation of gemcitabine,[2],none of the compounds showed an activation effect
Nc1ccn([C@@H]2O[C@H](CO)[C@@H](O)C2(F)F)c(=O)n1 [gemcitabine],"anti-proliferative effect, single agent","[3]; gemcitabine 0−100 µM or masitinib 0−10 µM alone, 5 days",could not induce strong anti-proliferative effects
same,"anti-proliferative effect, single agent",[4],could not induce strong anti-proliferative effects
same,"anti-proliferative effect, single agent","[5]; LNCaP, gemcitabine 0−100 µM or masitinib 0−10 µM alone, 5 days",could not induce strong anti-proliferative effects
same,sensitivity to gemcitabine,[6],strong sensitivity to gemcitabine
same,sensitivity to gemcitabine,[7],did not show any anti-proliferative effect
same,sensitivity to gemcitabine,[8],restored the capacity of CHO cells to respond to gemcitabine treatment
same,Kd,[1],22.2 µM
same,BLI signal for substrate binding,[9],could not detect any signal
Cc1ccc(NC(=O)c2ccc(CN3CCN(C)CC3)cc2)cc1Nc1nc(-c2cccnc2)cs1 [masitinib],"drug synergy with gemcitabine (Combenefit: HSA, Loewe, Bliss models)",[3],synergetic effect
same,"drug synergy with gemcitabine (Combenefit: HSA, Loewe, Bliss models)",[5]; LnCAP,synergetic effect
same,modulation of UCK1 enzymatic activity,[10],didn’t produce an enzymatic modulation; also recorded: did not observe an enzymatic activation
same,modulation of TK1 enzymatic activity,[11],didn’t produce an enzymatic modulation; also recorded: did not observe an enzymatic activation
CN[C@@H]1C[C@H]2O[C@@](C)([C@@H]1OC)n1c3ccccc3c3c4c(c5c6ccccc6n2c5c31)C(=O)NC4 [staurosporine],effect on dCK enzymatic phosphorylation of gemcitabine,[2],none of the compounds showed an activation effect
Cc1cc(Nc2cc(N3CCN(C)CC3)nc(Sc3ccc(NC(=O)C4CC4)cc3)n2)[nH]n1 [tozasertib],effect on nucleoside phosphorylation by dCK,[2],most active
